The text below walks through data of PubChem BioAssay (NCI).

What all share (experiment): DTP human tumour cell line panel, 48 h
Test [1] deals with UO-31 renal.
Test [2] has as its system SW-620 colon.
For test [3], the system named is HCT-116 colon.
In test [4] the test system is IGROV1 ovarian.
The subject of test [5] is PC-3 prostate.
For test [6], the system named is T-47D breast.
The subject of test [7] is HT29 colon.
Test [8] relates to OVCAR-8 ovarian.
The test system of test [9] is HCT-15 colon.
The test system of test [10] is HS 578T breast.

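A five-concentration, 48-hour dose response in 96-well plates underlies each endpoint, interpolated linearly between surrounding concentrations. GI50 marks 50% less growth. TGI marks complete inhibition of growth.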

Turning to `CN(CCCCCl)P(=O)(OCCS(=O)(=O)CC(NC(=O)CCC(N)C(=O)O)C(=O)NC(C(=O)O)c1ccccc1)OCC1OC(n2ccc(N)nc2=O)C(F)(F)C1O` (stereo not given), the GI50 in [1] is less than 0.0213 µM; in [2], 1.44 µM; in test [3], 0.0378 µM; in [4] it was 0.0581 µM; in test [5] it was 5.24 µM; in test [6], 1.33 µM. For the same compound, the GI50 in test [7] was 0.586 µM; in test [8] it was less than 0.0172 µM; in [9], 8.92 µM; in test [10], greater than 60.4 µM. The concentration for total growth inhibition (TGI) was 2.7 µM in test [1]; greater than 100 µM in test [2]; greater than 100 µM in [3]; 25.9 µM in test [4]; greater than 100 µM in test [5]; greater than 100 µM in test [6]. Further, the TGI in [7], in test [8], in test [9] and in test [10] was greater than 100 µM each time.
For `COC(=O)C1C(O)CCC2CN3CCc4c([nH]c5ccccc45)C3CC21` (stereo not given), the TGI in test [1], in [2], in test [3], in test [4], in test [5] and in test [6] was greater than 100 µM throughout. Also, the concentration for total growth inhibition (TGI) in test [7], in test [8], in test [9] and in [10] was greater than 100 µM throughout.
Regarding `C[C@@H]1C[C@H](C)CN(S(=O)(=O)c2ccc3c(NO)c4ccc(S(=O)(=O)N5C[C@H](C)C[C@H](C)C5)cc4c(N=O)c3c2)C1`, the GI50 in [1] is 0.167 µM; in [2] it was 0.0298 µM; in [3] it was 0.032 µM; in test [4], 0.21 µM; in [5], 0.117 µM; in [6], 0.178 µM. For the same compound, the GI50 was 0.159 µM in test [7], 0.232 µM in test [8], 0.0717 µM in test [9] and 0.161 µM in test [10]. In addition, the TGI in test [1] came out at 0.338 µM; in test [2], 0.104 µM; in test [3], 0.115 µM; in test [4], 0.461 µM; in test [5], 0.249 µM; in test [6], 0.362 µM. Further, the TGI in test [7] is 0.313 µM; in [8], 0.527 µM; in test [9] it was 0.211 µM; in [10], 0.422 µM.
Turning to `S=c1snc2n1CCN2`, the GI50 in test [1] was greater than 100 µM; in test [2], 40.5 µM; in [3] it was 22.6 µM; in test [4] it was greater than 100 µM; in test [5], 65.4 µM; in [6] it was 0.85 µM. In addition, the GI50 in test [7] is 65.9 µM; in [8] it was greater than 100 µM; in test [9] it was greater than 100 µM; in [10], greater than 100 µM. The concentration for total growth inhibition (TGI) in test [1] is greater than 100 µM; in test [2], greater than 100 µM; in test [3] it was greater than 100 µM; in [4], greater than 100 µM; in test [5], greater than 100 µM; in test [6] it was 37.4 µM. The TGI in test [7], in test [8], in test [9] and in [10] was greater than 100 µM each time.
As to `O=C(O)c1ccc(NCn2nc(-c3ccccc3O)oc2=S)cc1`, the GI50 in test [1] was greater than 100 µM; in [2], 38.9 µM; in test [3] it was 23.7 µM; in [4] it was greater than 100 µM; in [5] it was 59.9 µM; in test [6], greater than 100 µM. Further, the GI50 in test [7] is 38.6 µM; in [8] it was greater than 100 µM; in [9] it was 24.9 µM; in [10], greater than 100 µM. The TGI in test [1] is greater than 100 µM; in [2], greater than 100 µM; in [3], 57.3 µM; in test [4], greater than 100 µM; in test [5], greater than 100 µM; in [6], greater than 100 µM. In addition, the TGI was greater than 100 µM in test [7], greater than 100 µM in test [8], 57.5 µM in [9] and greater than 100 µM in test [10].
Turning to `CC[C@H](Nc1ncnc2nc[nH]c12)c1nc2cccc(F)c2c(=O)n1-c1ccccc1`, the GI50 is 3.5 µM in [1]; 79.7 µM in test [2]; 39.4 µM in [3]; 4.09 µM in [4]; 3.32 µM in [5]; 3.76 µM in test [6]. For the same compound, the GI50 in test [7] was 30 µM; in test [8], 44.6 µM; in test [9] it was 37.6 µM; in [10], 4.12 µM. In addition, the TGI is greater than 68.7 µM in [1]; greater than 100 µM in test [2]; greater than 100 µM in [3]; 22.7 µM in [4]; greater than 100 µM in [5]; greater than 100 µM in [6]. Moreover, the TGI in test [7] is greater than 100 µM; in test [8], greater than 100 µM; in test [9], greater than 100 µM; in [10] it was greater than 88.3 µM.
Consider `FC(F)(c1ccc2ncccc2c1)c1nnc2ccc(-c3ccncc3)nn12`, for which the GI50 was 19.2 µM in [1]; greater than 100 µM in [2]; 95.8 µM in test [3]; 49.4 µM in test [4]; 74.6 µM in test [5]; 61.9 µM in test [6]. The GI50 is greater than 100 µM in test [7], 84.1 µM in test [8], 60 µM in [9] and 22.3 µM in [10]. The TGI in [1], in [2], in test [3], in [4], in test [5] and in test [6] was greater than 100 µM each time. For the same compound, the TGI in test [7], in [8], in [9] and in [10] was greater than 100 µM in each case.

In general, GI50 refers to the concentration that inhibits growth by half. One may read the TGI as the concentration giving total growth inhibition. Lower therefore signals greater sensitivity of the cells.
